Source: US20050085553A1, “Remedies for mild recognition deflict” (priority 2001, published 2005)

Columns and labels:
[1] = tested on: Fisher344 rats (27-month old, male); experiment: water maze test, learning deficit in old rats; format: in vivo, rat; conditions: 0.3 or 1.0 mg/kg orally once a day for 14 days
Experimental: An Ameliorative Effect of the Agent on Learning Deficit in Old Rats
Fisher344 rats (27-month old, male) were previously subjected to four trials of a water maze test using a pool with a diameter of 90 cm and a platform on the surface of water in the pool. The rats with remarkable disability to swim were excluded and the rest were divided into several groups. The compound A (0.3 or 1.0 mg/kg) was orally administered to the rats once a day for 14 days. On the 10th day, the rats were subjected to four trials of a water maze test using a platform on the surface of water in a pool and confirmed again that they had no difficulty in swimming ability. Starting from the next day, the rats were subjected four times a day for 3 days to a water maze test using a pool with a diameter of 120 cm and a platform submerged below the surface of water in the pool. In this test, the time required for the rats to arrive at the platform was measured. Two trials were expressed as one block. During the behavioral pharmacological test period, the drug was administered after the test.

amyloid plaques = experiment: number and area of amyloid plaques, brain sections immunostained with BAN50; format: in vivo, mouse; conditions: feed containing 56 ppm (about 7 mg/kg/day) for six months; sections containing dorsal hippocampus
Experimental: (§1) An Effect on Increase in Insoluble Aβ40/42 and Amyloid Plaque Formation in the Brains of Transgenic Mice with Swedish APP Mutation
Transgenic mice with Swedish amyloid precursor protein (APP) mutation (7- to 8-month old) were given solid feed containing the compound A (56 ppm) (equivalent to a dosage of about 7 mg/kg/day) or control feed for six months. After six months from the administration, one cerebral hemisphere was used for brain histological examination and the other hemisphere was used for determining the quantity of Aβ40/42. Cerebral cortex was used for measuring the quantity of Aβ. The accumulation type of insoluble Aβ40/42 protein were extracted by homogenization of the cerebral cortex in 25 times amount of Tris buffer (containing a protease inhibitor) followed by centrifugation to remove the supernatant. Then, 19 times amount of 70% formic acid was added to the insoluble precipitation and homogenized to solubilize it. After centrifugation, the supernatant was diluted to 1/20 with 1M Tris solution for neutralization and the diluted supernatant was used for determining the quantity of Aβ40/42 contained therein. Using enzyme-linked immunosorbent assay (ELISA), the quantity of accumulation-type Aβ40/42 was measured. […]

[2] = tested on: transgenic mice with Swedish APP mutation; experiment: general condition of the mice during the drug administration period; format: in vivo, mouse; conditions: feed containing 56 ppm (about 7 mg/kg/day) for six months
Experimental: (§2) Transgenic mice with Swedish amyloid precursor protein (APP) mutation (7- to 8-month old) were given solid feed containing the compound A (56 ppm) (equivalent to a dosage of about 7 mg/kg/day) or control feed for six months. After six months from the administration, one cerebral hemisphere was used for brain histological examination and the other hemisphere was used for determining the quantity of Aβ40/42. Cerebral cortex was used for measuring the quantity of Aβ. The accumulation type of insoluble Aβ40/42 protein were extracted by homogenization of the cerebral cortex in 25 times amount of Tris buffer (containing a protease inhibitor) followed by centrifugation to remove the supernatant. Then, 19 times amount of 70% formic acid was added to the insoluble precipitation and homogenized to solubilize it. After centrifugation, the supernatant was diluted to 1/20 with 1M Tris solution for neutralization and the diluted supernatant was used for determining the quantity of Aβ40/42 contained therein. Using enzyme-linked immunosorbent assay (ELISA), the quantity of accumulation-type Aβ40/42 was measured.

insoluble Aβ42 = experiment: quantity of insoluble Aβ42 in cerebral cortex of transgenic mice with Swedish APP mutation (ELISA); format: in vivo, mouse; conditions: feed containing 56 ppm (about 7 mg/kg/day) for six months, 13-14 month old mice
Experimental: as §1, §2

insoluble Aβ40 = experiment: quantity of insoluble Aβ40 in cerebral cortex of transgenic mice with Swedish APP mutation (ELISA); format: in vivo, mouse; conditions: feed containing 56 ppm (about 7 mg/kg/day) for six months, 13-14 month old mice
Experimental: as §1, §2

## CN(C)CC[C@@H]1CCc2cc(OCc3ccc(-c4ccccc4)cc3)ccc2C1.Cl.O [compound A, (R)-(+)-6-(4-biphenylyl)methoxy-2-[2-(N,N-dimethylamino)ethyl]tetralin Hydrochloride Monohydrate]
[1]; final training block, compared between the groups
  swimming time for escape: significantly shortened
[1]; water maze, large pool (120 cm), submerged platform, vs old control group
  time required to arrive at the platform: significantly improved
Amyloid plaques
  area of amyloid plaques, relative to the vehicle group: ~35 % of those in the vehicle group
  number of amyloid plaques, relative to the vehicle group: about 40 % of those in the vehicle group
[2]
  change in the general condition of the mice including weight loss: no change
Insoluble Aβ42
  reduction of quantity of insoluble Aβ42 in contrast to the vehicle group: about 30%
Insoluble Aβ40
  reduction of quantity of insoluble Aβ40 in contrast to the vehicle group: about 30%
